Where a SMILES comes first, the peptide text is derived from it. Bridges are numbered along the chain shown (N, C = ends).
Legend:
rGHBP [1] = biological target: T1, rGHBP (Rattus norvegicus, UniProt P16310); experiment: BIAcore affinity measurements of bPeptide binding to rGHBP; details: BIAcore appKD and phage competition
T1 construct: 1–48 of GHBP; The 3′ oligo used for this reaction encoded the mutation L43R (CTG→AGA); The second PCR reaction amplified the DNA encoding amino acids 38–260; 6xHis; made in house
T1 sequence (P16310 19-278 isoform P16310-2): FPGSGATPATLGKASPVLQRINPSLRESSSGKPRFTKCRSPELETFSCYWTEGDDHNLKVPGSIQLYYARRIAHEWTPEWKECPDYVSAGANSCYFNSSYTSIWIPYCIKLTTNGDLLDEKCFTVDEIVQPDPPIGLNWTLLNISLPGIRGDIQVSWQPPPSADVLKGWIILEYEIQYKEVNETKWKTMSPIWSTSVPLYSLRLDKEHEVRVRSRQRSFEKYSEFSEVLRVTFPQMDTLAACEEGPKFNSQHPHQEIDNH
Description: GHBP was immobilized onto one flow-cell of a CM-5 sensor chip (Biosensor) using amine coupling chemistry and the manufacturer's recommended protocol. An unrelated IgG was immobilized in the same manner to another flow cell of the same chip as a control surface. Increasing concentrations of synthetic peptide were injected over both surfaces, and the binding responses were allowed to come to equilibrium. After subtraction of background binding from the control surface, the results were used to derive an equilibrium dissociation constant using Scatchard analysis.
The rat GHBP (100 μg/ml) was immobilized onto a CM-5 sensor chip using amino coupling chemistry and the manufacturer's recommended protocol. The final surface density was 4000 RU. A monoclonal antibody was immobilized onto another flow cell as a control surface. Peptides (50 μg/ml) were injected at a flow rate of 5 μl/min. Background binding to the control surface was subtracted prior to further analysis.

rGHBP [2] = biological target: T1, rGHBP; experiment: Time-resolved fluorometric detection (TRFD) of specific bLigand binding to rGHBP and its competition; details: TRFD
Description: For this invention, saEu forms a ternary complex with bP and rGHBP (i.e., the rGHBP:bP:saEu complex). As described herein, the TRFD assay is performed using biotinylated GH (bGH) as bLigand. Biotinylated H5-mutant peptides bP#447 (SEQ ID NO:11) and bP#418 (SEQ ID NO:12) are also used as bLigand (see below). The TRFD assay described herein faithfully reports the competition of ligand binding to the active site of rGHR. To perform the TRFD assays, soluble rGHBP is attached to the surface of microtiter wells, then incubated with bP. Unbound bP is than washed away and (sa)Eu is added to complex with receptor bound bP. The rGHBP:bP bound (sa)Eu is then converted into its highly fluorescent state and detected by TRFD.
Wells were coated with rGHBP(100 ng/well) overnight as described. ED50 and IC50 were calculated from analysis of specific bLigand binding to rGHBP. Competitors were added 1 hr prior to addition of bLigand as described.
rGHBP (50–200 μg/ml in 50 mM NaHCO3) was coated onto low-fluorescence MaxiSorp (Nunc) plates (100 μl/well) overnight at 4° C. The plates were blocked with PBS containing 2% non-fat milk and 0.05% BSA for 2 hr at room temperature, followed by three PBS washes. For competitions, serial dilutions of unlabelled growth hormone (0.1 nM-100 nM) or MAb 2C3 (0.67–67 nM) were added to the plates (100 μl/well) and incubated at room temperature for 1–2 hr. Biotinylated peptide or biotinylated GH (10× concentrations) were incubated in blocking buffer for 30 min to decrease non-specific binding. Ten microliters of the 10× concentrated material was added to the plates and incubated at room temperature for 1 hr to overnight.
The plates were then washed five times with Tris-buffered saline (pH 7.5) containing 0.1% Tween-20 (TTBS). To each well, 100 μl of europium-labeled streptavidin in DELFIA assay buffer (100 mM Tris-HCl, pH 7.8; 150 mM NaCl; 0.5% BSA; 0.05% bovine Ig; 0.05% NaN3; 0.01% Tween-20) was added and incubated for 1.5 hr at room temperature. The plates were then washed five times with TTBS and tapped dry. Subsequently, 100 μl of DELFIA enhancement solution (100 mM acetone-potassium hydrogen phthalate, pH 3.2; 15 mM 2-naphtyltrifluoroacetate; […] tri(n-octyl)-phosphine oxide; 0.1% Triton X-100) was added to each well, and the plates were shaken for 10 min at room temperature. Fluorescence of each sample well was measured at 615 nm using a DELFIA 1234 fluorometer (EG&G Wallac). General procedure and references as described by Wallac are available in “Lanthanide labeling for time-resolved fluorometry”: Wallac publication 1244–1126-03.

| affinity for rGHBP, ranking (rGHBP [1]) | binding better than H5WT or bP#445 (rGHBP [2]) | SMILES |
| --- | --- | --- |
| highest affinity | 10 times | CC(C)C[C@@H]1NC(=O)[C@H](Cc2c[nH]c3ccccc23)NC(=O)CNC(=O)[C@@H]2CCCN2C(=O)[C@H](Cc2c[nH]c3ccccc23)NC(=O)[C@H]([C@@H](C)O)NC(=O)[C@H](C(C)C)NC(=O)[C@H](CCC(N)=O)NC(=O)[C@H](Cc2c[nH]c3ccccc23)NC(=O)[C@H](CO)NC(=O)[C@H](CCC(N)=O)NC(=O)[C@@H](NC(=O)[C@H](CC(C)C)NC(=O)[C@H](CC(=O)O)NC(=O)[C@H](CCCCN)NC(=O)[C@H](Cc2ccc(O)cc2)NC(=O)[C@@H](N)CC(=O)O)CSSC[C@@H](C(=O)N[C@@H](C)C(=O)N[C@@H](CCCCN)C(=O)N[C@@H](CCCCN)C(=O)O)NC(=O)[C@H](Cc2c[nH]c3ccccc23)NC(=O)CNC(=O)[C@H](C)NC1=O [#418] (H-DYKDLCQSWQVTWPGWLAGWCAKK-OH; disulfide 6-21; N-terminus and C-terminus assumed) |
| highest affinity | 10 times | CC(C)C[C@@H]1NC(=O)[C@H](CCCNC(=N)N)NC(=O)[C@H](CCC(N)=O)NC(=O)[C@@H](NC(=O)[C@H](CC(C)C)NC(=O)[C@H](CC(=O)O)NC(=O)[C@H](CCCCN)NC(=O)[C@H](Cc2ccc(O)cc2)NC(=O)[C@@H](N)CC(=O)O)CSSC[C@@H](C(=O)N[C@@H](C)C(=O)N[C@@H](CCCCN)C(=O)N[C@@H](CCCCN)C(=O)O)NC(=O)[C@H](Cc2c[nH]c3ccccc23)NC(=O)CNC(=O)[C@H](CO)NC(=O)[C@H](CC(C)C)NC(=O)[C@H](Cc2c[nH]c3ccccc23)NC(=O)CNC(=O)[C@@H]2CCCN2C(=O)[C@H](Cc2c[nH]c3ccccc23)NC(=O)CNC(=O)[C@H](C(C)C)NC(=O)CNC1=O [#447] |

Reference: patent publication US7148193B2, “Compounds that bind to growth hormone receptor” (Antyra, Inc., priority 1997, dated 2006)
